Results taken from PubChem BioAssay AID328 (DTP/NCI, 2004).
Where “and” joins values, the source holds several entries; their conditions need not be identical. Equal entries are not always repeated. Inconclusive results and toxic doses are left out.

Tested on: BDF1 mice, P388 leukemia ip, median survival T/C
Assay: NCI In Vivo Anticancer Drug Screen. Data for tumor model P388 Leukemia (intraperitoneal) in B6D2F1 (BDF1) mice
Settings: endpoint: median survival time, higher = longer survival
Method in brief: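 T/C = treated-group survival ÷ vehicle-control survival; tumour transplanted into mice before dosing.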

[1] = dose: 100.0 mg/kg/injection, schedule: Q01DX009 (ip), vehicle: saline with Tween-80
[2] = dose: 100.0 mg/kg/injection, schedule: Q04DX003 (ip), vehicle: saline with Tween-80
[3] = dose: 200.0 mg/kg/injection, schedule: Q01DX009 (ip), vehicle: saline with Tween-80
[4] = dose: 200.0 mg/kg/injection, schedule: Q04DX003 (ip), vehicle: saline with Tween-80
[5] = dose: 400.0 mg/kg/injection, schedule: Q04DX003 (ip), vehicle: saline with Tween-80
[6] = dose: 100.0 mg/kg/injection, schedule: Q01DX009 (ip), vehicle: saline
[7] = dose: 100.0 mg/kg/injection, schedule: Q04DX003 (ip), vehicle: saline
[8] = dose: 200.0 mg/kg/injection, schedule: Q04DX003 (ip), vehicle: saline
[9] = dose: 400.0 mg/kg/injection, schedule: Q01DX009 (ip), vehicle: saline
[10] = dose: 50.0 mg/kg/injection, schedule: Q01DX005 (ip), vehicle: saline with Tween-80
[11] = dose: 100.0 mg/kg/injection, schedule: Q01DX005 (ip), vehicle: saline with Tween-80
[12] = dose: 200.0 mg/kg/injection, schedule: Q01DX005 (ip), vehicle: saline with Tween-80
[13] = dose: 400.0 mg/kg/injection, schedule: Q01DX009 (ip), vehicle: saline with Tween-80
[14] = dose: 50.0 mg/kg/injection, schedule: Q01DX009 (ip), vehicle: saline with Tween-80
[15] = dose: 12.5 mg/kg/injection, schedule: Q01DX009 (ip), vehicle: saline with Tween-80
[16] = dose: 25.0 mg/kg/injection, schedule: Q01DX009 (ip), vehicle: saline with Tween-80
[17] = dose: 50.0 mg/kg/injection, schedule: Q01DX009 (ip), vehicle: Klucel (hydroxypropylcellulose) (HPC)
[18] = dose: 100.0 mg/kg/injection, schedule: Q04DX003 (ip), vehicle: Klucel (hydroxypropylcellulose) (HPC)
[19] = dose: 200.0 mg/kg/injection, schedule: Q04DX003 (ip), vehicle: Klucel (hydroxypropylcellulose) (HPC)
[20] = dose: 100.0 mg/kg/injection, schedule: Q01DX001 (ip), vehicle: Klucel (hydroxypropylcellulose) (HPC)
[21] = dose: 200.0 mg/kg/injection, schedule: Q01DX001 (ip), vehicle: Klucel (hydroxypropylcellulose) (HPC)
[22] = dose: 400.0 mg/kg/injection, schedule: Q01DX001 (ip), vehicle: Klucel (hydroxypropylcellulose) (HPC)

SMILES: COC(OC)c1nc(N)[nH]c(=O)c1Cc1ccc(C)c2ccccc12
- T/C [1]: 96 % of control
- T/C [2]: 109 % of control
- T/C [3]: 88 % of control
- T/C [4]: 100 % of control
- T/C [5]: 100 % of control

SMILES: Cn1c(O)c(C=N)c(=O)[nH]c1=O
- T/C [6]: 100 % of control
- T/C [7]: 100 % of control
- T/C [8]: 92 % of control
- T/C [9]: 109 % of control
- T/C (dose: 400.0 mg/kg/injection, schedule: Q04DX003 (ip), vehicle: saline): 107 % of control

SMILES: C(=C(\Cc1ccccc1)c1ccccc1)/c1ccccc1
- T/C [10]: 99 % of control
- T/C [11]: 103 % of control
- T/C [12]: 103 % of control

SMILES: CC(C)C(=O)OCC1OC(n2cnc3c(=S)nc[nH]c32)C(OC(=O)C(C)C)C1OC(=O)C(C)C (stereo unspecified)
- T/C (dose: 88.0 mg/kg/injection, schedule: Q01DX009 (ip), vehicle: saline with Tween-80): 104 % of control
- T/C [1]: 118 % of control
- T/C (dose: 133.0 mg/kg/injection, schedule: Q01DX009 (ip), vehicle: saline with Tween-80): 95 % of control
- T/C [3]: 100 % of control
- T/C (dose: 300.0 mg/kg/injection, schedule: Q01DX009 (ip), vehicle: saline with Tween-80): 100 % of control
- T/C [13]: 100 % of control

SMILES: Cc1cc(N(CCC(=O)O)CCC(=O)O)ccc1/C=C/c1ccc2cc(Cl)ccc2[n+]1C
- T/C (dose: 12.5 mg/kg/injection, schedule: Q01DX001 (ip), vehicle: saline with Tween-80): 96 % of control
- T/C (dose: 25.0 mg/kg/injection, schedule: Q01DX001 (ip), vehicle: saline with Tween-80): 96 % of control
- T/C (dose: 50.0 mg/kg/injection, schedule: Q01DX001 (ip), vehicle: saline with Tween-80): 94 % of control

SMILES: O=C(NO)c1cc(O)c(O)c(O)c1
- T/C (dose: 50.0 mg/kg/injection, schedule: Q01DX005 (ip), vehicle: distilled water + Tween-80): 123 % of control
- T/C (dose: 200.0 mg/kg/injection, schedule: Q01DX005 (ip), vehicle: distilled water + Tween-80): 150 % of control
- T/C (dose: 400.0 mg/kg/injection, schedule: Q01DX005 (ip), vehicle: distilled water + Tween-80): 153 % of control

SMILES: O=S1(=O)C=C(c2ccccc2)C1
- T/C [14]: 108 % of control
- T/C [1]: 107 % of control

SMILES: C[n+]1c2ccccc2c(Nc2ccc(NS(=O)(=O)CCCCN=C(N)N)cc2)c2ccc(N)cc21
- T/C (dose: 3.0 mg/kg/injection, schedule: Q01DX009 (ip), vehicle: water): 205 % of control
- T/C (dose: 6.0 mg/kg/injection, schedule: Q01DX009 (ip), vehicle: water): 116 % of control

SMILES: O=[N+]([O-])c1cccc(N2CN(c3cccc([N+](=O)[O-])c3)CN(c3cccc([N+](=O)[O-])c3)C2)c1
- T/C [14]: 116 % of control
- T/C [1]: 106 % of control
- T/C [3]: 100 % of control

SMILES: CCC/C=C/C=C/C1CC(O)C(O)C(=O)C1CO (stereo unspecified)
- T/C [15]: 99 % of control
- T/C [16]: 106 % of control
- T/C [14]: 97 % of control
- T/C [1]: 101 % of control

SMILES: CP(c1ccccc1)c1ccccc1
- T/C [17]: 109 % of control
- T/C (dose: 50.0 mg/kg/injection, schedule: Q04DX003 (ip), vehicle: Klucel (hydroxypropylcellulose) (HPC)): 113 % of control
- T/C [18]: 113 % of control
- T/C (dose: 133.0 mg/kg/injection, schedule: Q01DX009 (ip), vehicle: Klucel (hydroxypropylcellulose) (HPC)): 100 % of control
- T/C (dose: 200.0 mg/kg/injection, schedule: Q01DX009 (ip), vehicle: Klucel (hydroxypropylcellulose) (HPC)): 107 % of control
- T/C [19]: 104 % of control
- T/C (dose: 300.0 mg/kg/injection, schedule: Q01DX009 (ip), vehicle: Klucel (hydroxypropylcellulose) (HPC)): 123 % of control

SMILES: CS(=O)(=O)OCC(=O)NCC(O)CNC(=O)COS(C)(=O)=O
- T/C (dose: 78.0 mg/kg/injection, schedule: Q04DX003 (ip), vehicle: saline with Tween-80): 150 % of control
- T/C (dose: 177.0 mg/kg/injection, schedule: Q04DX003 (ip), vehicle: saline with Tween-80): 161 % of control
- T/C (dose: 264.0 mg/kg/injection, schedule: Q04DX003 (ip), vehicle: saline with Tween-80): 231 % of control and 157 % of control
- T/C [5]: 209 % of control

SMILES: CC(=O)OC1CCC2(C)C(=CCC3C2CCC2(C)C(OC(=O)c4ccccc4)CCC32)C1 (stereo unspecified)
- T/C [20]: 100 % of control
- T/C [6]: 110 % of control
- T/C [18]: 120 % of control
- T/C [21]: 100 % of control
- T/C (dose: 200.0 mg/kg/injection, schedule: Q01DX009 (ip), vehicle: saline): 95 % of control
- T/C [19]: 105 % of control
- T/C [22]: 100 % of control
- T/C [9]: 105 % of control
- T/C (dose: 400.0 mg/kg/injection, schedule: Q04DX003 (ip), vehicle: Klucel (hydroxypropylcellulose) (HPC)): 110 % of control

SMILES: CN(C)c1ccc([N+](=O)[O-])cn1
- T/C [15]: 95 % of control
- T/C [16]: 102 % of control
- T/C [14]: 98 % of control
- T/C [1]: 98 % of control

SMILES: COc1ccc2[nH]c3c(c2c1)CCNC3CC(C)CCC=C(C)C (stereo unspecified)
- T/C [14]: 93 % of control
- T/C [1]: 113 % of control

SMILES: CC(C)(C)N(O)N=O.CC(C)(C)N(O)N=O.[Cu]
- T/C (dose: 1.56 mg/kg/injection, schedule: Q01DX001 (ip), vehicle: saline): 107 % of control
- T/C (dose: 3.13 mg/kg/injection, schedule: Q01DX001 (ip), vehicle: saline): 109 % of control
- T/C (dose: 6.25 mg/kg/injection, schedule: Q01DX001 (ip), vehicle: saline): 106 % of control

SMILES: II
- T/C (dose: 12.0 mg/kg/injection, schedule: Q01DX010 (ip), vehicle: acetone): 114 % of control
- T/C (dose: 25.0 mg/kg/injection, schedule: Q01DX010 (ip), vehicle: acetone): 96 % of control
- T/C (dose: 50.0 mg/kg/injection, schedule: Q01DX010 (ip), vehicle: acetone): 110 % of control

SMILES: CCC(C)C(NC(=O)C(Cc1ccc(O)cc1)NC(=O)C(N)C(C)C)C(=O)NC(Cc1cnc[nH]1)C(=O)N1CCCC1C(=O)NC(Cc1ccccc1)C(=O)OC (stereo unspecified)
- T/C [10]: 101 % of control
- T/C [11]: 90 % of control
- T/C [12]: 90 % of control

SMILES: COc1ccc(Cl)cc1NC(=O)Nc1c(C)n(C)n(-c2ccccc2)c1=O
- T/C [20]: 100 % of control
- T/C [21]: 100 % of control
- T/C [22]: 95 % of control

SMILES: CCCCNC(=O)c1ccccc1Sc1ccccc1C(=O)NCCCC
- T/C (dose: 100.0 mg/kg/injection, schedule: Q04DX002 (ip), vehicle: saline with Tween-80): 107 % of control
- T/C (dose: 200.0 mg/kg/injection, schedule: Q04DX002 (ip), vehicle: saline with Tween-80): 109 % of control
- T/C (dose: 400.0 mg/kg/injection, schedule: Q04DX002 (ip), vehicle: saline with Tween-80): 104 % of control

SMILES: COc1c(CO)c2c(c(OC)c1OC)-c1ccc(OC)c(=O)cc1[C@@H](NC(C)=O)CC2
- T/C (dose: 25.0 mg/kg/injection, schedule: Q01DX009 (ip), vehicle: Klucel (hydroxypropylcellulose) (HPC)): 153 % of control
- T/C [17]: 168 % of control

SMILES: Nc1cc(Cl)c(O)c(Cl)c1
- T/C (dose: 50.0 mg/kg/injection, schedule: Q04DX003 (ip), vehicle: saline): 100 % of control
- T/C [7]: 100 % of control
- T/C [8]: 95 % of control

SMILES: CN(N)c1ccccc1
- T/C (dose: 6.25 mg/kg/injection, schedule: Q04DX003 (ip), vehicle: saline with Tween-80): 93 % of control
- T/C (dose: 12.5 mg/kg/injection, schedule: Q04DX003 (ip), vehicle: saline with Tween-80): 95 % of control
- T/C (dose: 25.0 mg/kg/injection, schedule: Q04DX003 (ip), vehicle: saline with Tween-80): 90 % of control
- T/C (dose: 50.0 mg/kg/injection, schedule: Q04DX003 (ip), vehicle: saline with Tween-80): 104 % of control and 105 % of control
- T/C [2]: 113 % of control
- T/C [4]: 123 % of control

SMILES: Cc1ccc(-c2c(O)c(Br)c(-c3ccc(C)cc3C)c(O)c2Br)c(C)c1
- T/C [1]: 100 % of control
- T/C [3]: 100 % of control
- T/C [13]: 100 % of control
